Values quoted from earlier work in patent US4906471A (priority 1989, dated 1990).

What was measured:
[1] = test system: trasient ischemic attacks; conditions: in men; prior art statement

Row | Molecule | side effects / toxic effects (patients) | side effects at low doses (patients) | side effects at higher doses (patients) | side effects at usual dosage (patients; usual dosage, prior art statement) | incidence of transient ischemic attacks [1]
1 | Neomycin | high toxicity | nausea, abdonimal cramps, diarrhea and malabsorption |  |  | 
2 | CC(=O)Oc1ccccc1C(=O)O [Aspirin] |  |  | tinnitus, decreased hearing and vertigo | gastric intolerance | decrease the incidence of trasient ischemic attacks
3 | colestipol | constipation and bloating sensation; some times hearburn and diarrhea |  |  |  | 
